Test results taken from patent US6376753B1, “PURIFIED CYTOCHROME P450 POLYPEPTIDE CYP76B1 FROM HELIANTHUS TUBEROSUS AND ITS APPLICATIONS AS BIOCATALYST IN PARTICULAR FOR THE DEGRADATION OF ENVIRONMENTAL POLLUTANTS AND FOR ALTERING THE RESISTANCE OF PLANTS SENSITIVE TO PHENYLUREA FAMILY OF HERBICIDES” (priority 1997, dated 2002).

Assays:
CYP76B1 transcripts [1] = conditions: tuber tissues aged 48 h with the chemical
[2] = test system: 7-methoxyresorufin O-dealkylase activity; experiment: Induction of 7-methoxyresorufin O-demethylase activity in tuber slices; format: cell-based, Helianthus tuberosus; conditions: 48 hours of treatment
Experimental: Slices of dormant tuber of Helianthus tuberosus were placed under survival conditions in oxygenated distilled water and stirred with a current of compressed air in the presence of various metals or organic compounds (effectors).
A control was performed with DMSO alone.

CYP76B1 [3] = molecular target: T1, CYP76B1 (Helianthus tuberosus, UniProt O23976); experiment: biochemical
T1 sequence (O23976 1-490): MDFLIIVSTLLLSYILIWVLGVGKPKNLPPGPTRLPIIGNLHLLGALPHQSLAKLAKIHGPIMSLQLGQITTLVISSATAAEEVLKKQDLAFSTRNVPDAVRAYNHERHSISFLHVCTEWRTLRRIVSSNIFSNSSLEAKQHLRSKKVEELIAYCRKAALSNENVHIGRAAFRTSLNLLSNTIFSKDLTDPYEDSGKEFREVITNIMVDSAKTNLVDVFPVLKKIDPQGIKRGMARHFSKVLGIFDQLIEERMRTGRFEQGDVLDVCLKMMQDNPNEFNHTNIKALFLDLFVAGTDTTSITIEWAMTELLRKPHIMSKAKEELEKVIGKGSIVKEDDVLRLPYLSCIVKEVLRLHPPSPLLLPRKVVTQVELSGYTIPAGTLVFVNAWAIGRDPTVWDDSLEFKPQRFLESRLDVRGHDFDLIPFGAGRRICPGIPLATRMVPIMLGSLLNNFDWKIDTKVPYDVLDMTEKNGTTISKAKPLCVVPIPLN
Experimental: (§1) Spectrophotometric measurements of P450 content and substrate binding were performed as in (Gabriac et al., 1991) and SDS-PAGE was performed as in Gabriac et al. (34). Gels were stained with Coomassie Blue R-250. Alkoxycoumarins and alkoxyresorufins O-dealkylation was measured by fluorometry (Werck-Reichhart et al., 1990). The data are means ± S.D. of triplicates.
The binding of substrates into the catalytic site of a P450 usually induces a shift of its maximum of absorbance, redox potential and iron spin state (Raag and Poulos, 1989) resulting from the displacement of the water sixth ligand of the heme iron. It is easily detected by differential spectrophotometry as a so-called type I spectrum with a peak at 390 nm and a trough at 420 nm (Jefcoate, 1978). The variation of the differential absorbance ΔA390-420 versus substrate concentration allows the calculation of an apparent dissociation constant (Ks). A high ΔAmax induced by the ligand is usually an indication of correct positioning for catalysis.
CYP76B1 was 60 nM in the assays. Difference spectra were recorded after the addition of increasing concentrations of ligands to the sample cuvette. An equal volume of the herbicide solvent (DMSO) was added to the reference. Ks and ΔAmax at saturating ligand concentration were calculated from the double-reciprocal plots of ΔA(390-420 nm) versus substrate concentrations.

[4] = test system: cotton seedling hypocotyl microsomes; conditions: read-out: Km for demethylation; cited from earlier work
CYP76B1 [5] = molecular target: T1, CYP76B1; experiment: CYP76B1-dependent metabolism (O-/N-dealkylation) in microsomes of transformed yeast; conditions: for Activity: + NADPH; for turnover of the dealkylation: for phenylureas first dealkylation; for ECOD activity: Transformed yeast W(R)
Experimental: BamHI and EcoRI sites were introduced by PCR just upstream of the ATG and downstream of the stop codon of the CYP76B1 coding sequence, using the primers 5′-[…] (sense) 5′-[…] (reverse) (SEQ ID NO 3 and SEQ ID NO 4 respectively). The PCR mixture was preheated for 2 min at 92° C. before addition of 1 unit of Pfu DNA polymerase (Stratagene). After 3 min additional heating at 92° C., 30 cycles of amplification were carried out as follows 1 min denaturation at 92° C., 1 min annealing at 52° C., 2 min extension at 72° C. The reaction was completed by 10 min extension at 72° C. After BamHI/EcoRI digestion, the 1470 bp coding sequence was inserted into the vector pYeDP60 (32). Transformation of Saccharomyces cerevisiae W(R), WAT11 and WAT21, and yeast growth were conducted according to Pompon et al. (32). Yeast microsomes were prepared as described in Pierrel et al. (33) with addition of 1% SAB, 2 mM β-mercaptoethanol, 10 mM sodium disulfite and 1 mM PMSF to the extraction buffer. When indicated, 0.5 mM δ-aminolevulinic acid methyl ester (Sigma) was added to the induction medium, or cells were stored at 4° C. for 24 h before preparation of the microsomes.
as §1
The conversion of other molecules was assayed by TLC or HPLC analysis of polar metabolites formed from radiolabeled compounds (Cabello-Hurtado et al., 1998a, b). NADPH-cytochrome c reductase was assayed according to (Benveniste et al., 1986). Kinetic data were fitted using the nonlinear regression program […] (Duggleby, 1984).
10 μL of non-immune serum or of serum raised against purified ECOD fraction were preincubated 2 min at room temperature with 10 μL of microsomes before addition of the reaction mix. n.d.: not detectable.
Conversion was estimated from the sum of the two polar metabolites detected after TLC analysis. Data are means + S.D. of two to four determinations. n.d.: not detected.
CYP76B1 concentrations in the MCOD, ECOD, MROD and EROD fluorometric assays were 1.5 nM or 2.1 nM, depending on the coexpressed ATR1 or yeast reductases. In the CTUDM assays, CYP76B1 concentrations were 1.7 nM (ATR1) and 8 nM (yeast), respectively. It was 12 nM for the determination of the catalytic parameters of monodemethyl-CTUDM, and 1.7 nM (ATR1) or 20 nM (yeast) in the IPUDM assays. Products were quantified by direct TLC analysis of 100 μL of the acidified incubation medium after 6 min incubation at 30° C. for the CTUDM and IPUDM assays, and after 9 min incubation for the monodemethyl-CTUDM.

CYP73A1 = molecular target: T2, CYP73A1 (Helianthus tuberosus, UniProt Q04468); conditions: chlortoluron hydroxylation; cited from earlier work
T2 construct: host or cells: yeast-expressed, according to b197
T2 sequence (Q04468 1-505): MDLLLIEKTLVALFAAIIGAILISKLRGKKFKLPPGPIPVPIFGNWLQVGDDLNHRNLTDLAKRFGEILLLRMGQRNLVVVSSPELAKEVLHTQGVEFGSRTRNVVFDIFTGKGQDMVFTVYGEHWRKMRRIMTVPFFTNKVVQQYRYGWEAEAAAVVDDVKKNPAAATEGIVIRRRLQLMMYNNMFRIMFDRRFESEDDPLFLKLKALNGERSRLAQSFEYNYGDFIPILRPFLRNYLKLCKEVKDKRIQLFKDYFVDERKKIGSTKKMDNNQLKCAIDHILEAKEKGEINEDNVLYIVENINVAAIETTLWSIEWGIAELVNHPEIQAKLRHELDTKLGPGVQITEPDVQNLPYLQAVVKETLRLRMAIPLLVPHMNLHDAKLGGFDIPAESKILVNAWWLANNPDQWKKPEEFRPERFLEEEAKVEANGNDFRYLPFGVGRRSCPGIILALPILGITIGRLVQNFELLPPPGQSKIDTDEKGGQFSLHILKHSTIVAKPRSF

control yeast microsomes = experiment: Metabolism in control yeast microsomes (void plasmid pYeDP60); format: biochemical, Saccharomyces cerevisiae; conditions: NADPH
[6] = test system: microsomes from aminopyrine-induced H. tuberosus tuber tissues; experiment: ECOD activity in microsomes from aminopyrine-induced tuber tissues; format: biochemical, Helianthus tuberosus
Source text: Gels were stained with Coomassie Blue R-250. […] The data are means ± S.D. of triplicates.
Table 1: NADPH- and cumene hydroperoxide-dependent ECOD activity in microsomes from aminopyrine-induced H. tuberosus tuber tissues and in microsomes from control and CYP76B1-transformed yeast. Immunoinhibition by anti-ECOD antibodies.

CYP76B1 transcripts [7] = test system: CYP76B1 transcripts
[8] = substrate: CCOc1ccc2ccc(=O)oc2c1; experiment: purified protein, by the assay type
[9] = substrate: COc1ccc2ccc(=O)oc2c1; experiment: purified protein, by the assay type
[10] = substrate: CC(C)c1ccc(NC(=O)N(C)C)cc1; experiment: purified protein, by the assay type
[11] = substrate: CCOc1ccc2nc3ccc(=O)cc-3oc2c1; experiment: purified protein, by the assay type; conditions: other: coexpressed yeast reductase (W(R))
[12] = substrate: Cc1ccc(NC(=O)N(C)C)cc1Cl; experiment: purified protein, by the assay type
[13] = 50 μM NADPH, 400 μM 7-ethoxycoumarin
[14] = other: coexpressed reductase ATR1 (WAT11)
[15] = other: coexpressed yeast reductase (W(R))

In the case of `CCC1(c2ccccc2)C(=O)NC(=O)NC1=O.[Na]` [phenobarbital, 5-ethyl-5-phenyl-barbituric acid, sodium salt], the “effect on CYP76B1 mRNA accumulation / expression” value (CYP76B1 transcripts [1]) is reported as “strongly induced”, the “level of CYP76B1 transcripts relative to the control” value (CYP76B1 transcripts [1]) is reported as 6 × and the “induction of 7-methoxyresorufin O-dealkylase activity” value (shortened to “induction”) [2] is reported as “very strongly induced”.

In the case of `CN(C)C(=O)Nc1ccc(Cl)c(Cl)c1` [Diuron], the Kd (CYP76B1 [3]) is given as 20 µM and the Km [4] is given as 15 µM.

With `Cc1ccc(NC(=O)N(C)C)cc1Cl` [Chlortoluron, N-(3-chloro-p-tolyl)-N′,N′-dimethylurea] the Kd (CYP76B1 [3]) was 24 µM, the “ΔAmax × 10^−3” value (CYP76B1 [3]; CYP76B1 60 nM, at saturating ligand concentration) was 5.1 × 10^−3 and the Activity (CYP76B1 [5]; W(R) strain) was 1223 pkat mg-1 protein. For the same molecule, the “turnover of the dealkylation” value (CYP76B1 [5]; W(R) strain) was “about 376 min^−1”, the Activity (CYP76B1 [5]; WAT11 strain) was 4258 pkat mg-1 protein and the “turnover of the dealkylation” value (CYP76B1 [5]; WAT11 strain) was 803 min⁻¹. The Kcat (CYP76B1 [5]; coexpressed reductase ATR1 (WAT11)) was 13.4 s⁻¹, the Kcat (CYP76B1 [5]; coexpressed yeast reductase (W(R))) was 6.27 s⁻¹ and the “kCat of the second demethylation” value (CYP76B1 [5]; second demethylation, slow step for complete detoxification) was 0.767 s⁻¹. The “reaction turnover (hydroxylation)” value (CYP73A1) was 0.014 min⁻¹.

For `CCOc1ccc2ccc(=O)oc2c1` [7-ethoxycoumarin], the ECOD activity (control yeast microsomes) was “No activity”, the Vmax (CYP76B1 [5]; ECOD, W(R) yeast microsomes, NADPH) was 600 pkat.pmole^−1 P450 and the ECOD activity (CYP76B1 [5]; [13]) was 8.4 ± 0.05 pkat · mg^−1 protein. For the same molecule, the ECOD activity (CYP76B1 [5]; 125 μM cumene hydroperoxide) was “no activity”, the ECOD activity (CYP76B1 [5]; NADPH + anti-ECOD antibodies) was 7.5 ± 0.2 pkat · mg^−1 protein and the Activity (CYP76B1 [5]; W(R) strain) was 8.4 pkat mg-1 protein. For the same molecule, the “turnover of the dealkylation” value (CYP76B1 [5]; W(R) strain) was 10 min⁻¹, the Activity (CYP76B1 [5]; WAT11 strain) was 15.9 pkat mg-1 protein and the “turnover of the dealkylation” value (CYP76B1 [5]; WAT11 strain) was 30 min⁻¹. The ECOD activity [6, 13] was 5.2 ± 0.1 pkat · mg^−1 protein, the ECOD activity ([6]; 125 μM cumene hydroperoxide) was 2.5 ± 0.09 pkat · mg^−1 protein and the ECOD activity ([6]; NADPH + anti-ECOD antibodies) was 2.6 ± 0.1 pkat · mg^−1 protein.

For `[Cl][Mn][Cl]` [manganese, MnCl2], the “fold more transcripts coding for CYP76B1 than for CYP73A1 or CYP81B1” value (CYP76B1 transcripts [7]) was 2 to 6 fold and the “induction” value [2] was “very strongly induced”.

In the case of `Cc1c(N(C)C)c(=O)n(-c2ccccc2)n1C` [aminopyrine], the “fold more transcripts coding for CYP76B1 than for CYP73A1 or CYP81B1” value (CYP76B1 transcripts [7]) is reported as 2 to 6 fold and the “induction” value [2] is reported as “very strongly induced”.

B1: CYP76B1 (Helianthus tuberosus) (protein)
chain: MDFLIIVSTLLLSYILIWVLGVGKPKNLPPGPTRLPIIGNLHLLGALPHQSLAKLAKIHGPIMSLQLGQITTLVISSATAAEEVLKKQDLAFSTRNVPDAVRAYNHERHSISFLHVCTEWRTLRRIVSSNIFSNSSLEAKQHLRSKKVEELIAYCRKAALSNENVHIGRAAFRTSLNLLSNTIFSKDLTDPYEDSGKEFREVITNIMVDSAKTNLVDVFPVLKKIDPQGIKRGMARHFSKVLGIFDQLIEERMRTGRFEQGDVLDVCLKMMQDNPNEFNHTNIKALFLDLFVAGTDTTSITIEWAMTELLRKPHIMSKAKEELEKVIGKGSIVKEDDVLRLPYLSCIVKEVLRLHPPSPLLLPRKVVTQVELSGYTIPAGTLVFVNAWAIGRDPTVWDDSLEFKPQRFLESRLDVRGHDFDLIPFGAGRRICPGIPLATRMVPIMLGSLLNNFDWKIDTKVPYDVLDMTEKNGTTISKAKPLCVVPIPLN
With B1 the Km [8, 14] was 60 µM, the kcat [8, 14] was 0.5 s⁻¹ and the kcat/Km [8, 14] was 8330 M⁻¹ s⁻¹. For the same molecule, the Km [8, 15] was 74 µM, the kcat [8, 15] was 0.167 s⁻¹ and the kcat/Km [8, 15] was 2170 M⁻¹ s⁻¹. It also gave a Km [9, 14] of 808 µM, a kcat [9, 14] of 0.517 s⁻¹ and a kcat/Km [9, 14] of 667 M⁻¹ s⁻¹. The Km [9, 15] was 899 µM, the kcat [9, 15] was 0.217 s⁻¹ and the kcat/Km [9, 15] was 167 M⁻¹ s⁻¹. The Km [10, 14] was 289 µM, the Km [10, 15] was 361 µM and the Km [11] was 0.49 µM. The kcat [11] was 0.1 s⁻¹, the kcat/Km [11] was 200000 M⁻¹ s⁻¹ and the Km [12, 14] was 179 µM. For the same molecule, the Km [12, 15] was 202 µM.
